Data: ChEMBL document CHEMBL2163335, “Structure-functional selectivity relationship studies of β-arrestin-biased dopamine D₂ receptor agonists” (J Med Chem, 2012)
Calls of active or inactive are those of the source. The calls are words filed in the database; no cut-off is given here.

target: D(3) dopamine receptor (Homo sapiens) (UniProt P35462); experiment: Binding affinity to D3 receptor; conditions: not given
Sequence (P35462 whole entry): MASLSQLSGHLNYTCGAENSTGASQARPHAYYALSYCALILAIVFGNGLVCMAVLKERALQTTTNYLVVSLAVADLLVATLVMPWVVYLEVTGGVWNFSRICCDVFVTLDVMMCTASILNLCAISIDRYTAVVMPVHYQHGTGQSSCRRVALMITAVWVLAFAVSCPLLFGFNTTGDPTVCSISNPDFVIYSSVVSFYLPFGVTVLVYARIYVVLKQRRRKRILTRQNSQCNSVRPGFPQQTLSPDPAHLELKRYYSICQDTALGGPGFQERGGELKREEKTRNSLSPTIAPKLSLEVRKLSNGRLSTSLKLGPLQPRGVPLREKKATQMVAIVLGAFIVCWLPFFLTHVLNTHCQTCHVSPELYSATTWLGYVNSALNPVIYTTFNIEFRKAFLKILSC

SMILES	Activity
Clc1cccc(C2CCN(CCCCOc3ccc4scnc4c3)CC2)c1Cl	Active

target: T1, D(2) dopamine receptor (Homo sapiens, UniProt P14416); experiment: Agonist activity at D2L receptor in human HTLA cells assessed as beta arrestin recruitment at 6 uM after 18 hrs by luminescence assay; assay type: functional, cell-based; conditions: not given
T1 sequence (P14416 whole entry): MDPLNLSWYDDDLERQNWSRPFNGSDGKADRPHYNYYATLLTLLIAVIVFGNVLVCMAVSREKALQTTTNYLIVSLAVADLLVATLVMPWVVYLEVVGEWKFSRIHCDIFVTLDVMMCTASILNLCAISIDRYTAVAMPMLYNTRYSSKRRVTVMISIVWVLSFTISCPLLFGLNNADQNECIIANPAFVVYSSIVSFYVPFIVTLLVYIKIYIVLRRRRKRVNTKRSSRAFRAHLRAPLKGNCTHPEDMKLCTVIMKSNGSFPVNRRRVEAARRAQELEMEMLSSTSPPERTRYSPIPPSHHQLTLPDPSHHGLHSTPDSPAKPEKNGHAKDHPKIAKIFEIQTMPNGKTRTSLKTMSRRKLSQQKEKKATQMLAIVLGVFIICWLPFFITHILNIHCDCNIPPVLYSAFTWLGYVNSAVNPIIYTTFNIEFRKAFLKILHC

SMILES	EC50 [nM]
Clc1cccc(N2CCN(CCCOc3ccc4scnc4c3)CC2)c1Cl	126
CC(C)Oc1ccccc1N1CCN(CCCCOc2ccc3c(c2)NC(=O)CC3)CC1	2
Clc1cccc(C2CCN(CCCCOc3ccc4scnc4c3)CC2)c1Cl	79
O=C1NCCc2ccc(OCCCN3CCCN(c4cccc(Cl)c4Cl)CC3)cc21	6.3
O=C1NCCc2ccc(OCCCN3CCN(c4cccc(Cl)c4Cl)CC3)cc21	20
Clc1cccc(C2CCN(CCCOc3ccc4scnc4c3)CC2)c1Cl	50
O=C1CCc2ccc(OCCCCN3CCCN(c4cccc(Cl)c4Cl)CC3)nc2N1	1.6
CCOc1cccc(N2CCN(CCCCOc3ccc4c(c3)NC(=O)CC4)CC2)c1	10
CCOc1ccc(N2CCN(CCCCOc3ccc4c(c3)NC(=O)CC4)CC2)cc1	50
Clc1cccc(N2CCN(CCCOc3ccc4cn[nH]c4c3)CC2)c1Cl	200

target: T1, D(2) dopamine receptor; conditions: HTLA, 6 uM
Description: Partial agonist activity at D2L receptor in human HTLA cells assessed as beta arrestin recruitment at 6 uM after 18 hrs by luminescence assay relative to Quinpirole

SMILES	Emax [%]
O=C1CCc2ccc(OC[C@H]3CC[C@H](CN4CCN(c5cccc(Cl)c5Cl)CC4)CC3)cc2N1	45

target: T1, D(2) dopamine receptor; experiment: Displacement of [3H]N-methylspiperone from human D2L receptor expressed in CHO cells after 1.5 hrs by microbeta counting method; assay type: cell-based; conditions: not given

SMILES	Ki [nM]
O=C1CCc2ccc(OC[C@H]3CC[C@H](CN4CCN(c5cccc(Cl)c5Cl)CC4)CC3)cc2N1	145
CC(C)Oc1ccccc1N1CCN(CCCCOc2ccc3c(c2)NC(=O)CC3)CC1	3.1
CCOc1cccc(N2CCN(CCCCOc3ccc4c(c3)NC(=O)CC4)CC2)c1	21
CCOc1ccc(N2CCN(CCCCOc3ccc4c(c3)NC(=O)CC4)CC2)cc1	53

tested on: Mus musculus; experiment: Antipsychotic-like activity in wild type mouse assessed as inhibition of PCP-induced hyperlocomotion at 2 mg/kg, ip administered 30 min prior to PCP challenge measured after 90 min; assay type: functional, organism-based; parameters: dose 2 mg/kg; conditions: not given

SMILES	inhibition
Clc1cccc(C2CCN(CCCCOc3ccc4scnc4c3)CC2)c1Cl	Active
O=C1CCc2ccc(OCCCCN3CCCN(c4cccc(Cl)c4Cl)CC3)cc2N1	Active

target: D(1A) dopamine receptor (Homo sapiens) (UniProt P21728); experiment: Binding affinity to D1 receptor; conditions: not given
Sequence (P21728 whole entry): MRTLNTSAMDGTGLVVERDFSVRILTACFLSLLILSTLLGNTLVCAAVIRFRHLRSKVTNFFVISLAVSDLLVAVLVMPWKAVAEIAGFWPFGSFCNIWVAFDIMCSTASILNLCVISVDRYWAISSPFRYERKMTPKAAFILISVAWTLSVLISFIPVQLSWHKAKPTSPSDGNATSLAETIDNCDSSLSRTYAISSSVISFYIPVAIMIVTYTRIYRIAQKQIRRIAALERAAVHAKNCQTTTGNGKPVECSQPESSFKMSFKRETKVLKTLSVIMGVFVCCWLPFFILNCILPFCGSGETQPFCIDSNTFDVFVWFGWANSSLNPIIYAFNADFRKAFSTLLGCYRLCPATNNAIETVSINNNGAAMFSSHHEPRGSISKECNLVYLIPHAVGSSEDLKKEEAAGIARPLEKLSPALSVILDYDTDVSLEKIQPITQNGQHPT

SMILES	Activity
Clc1cccc(C2CCN(CCCCOc3ccc4scnc4c3)CC2)c1Cl	inactive
O=C1CCc2ccc(OCCCCN3CCCN(c4cccc(Cl)c4Cl)CC3)cc2N1	inactive

target: T2, D(4) dopamine receptor (Homo sapiens) (UniProt P21917); experiment: Binding affinity to D4 receptor; conditions: not given
T2 sequence (whole entry): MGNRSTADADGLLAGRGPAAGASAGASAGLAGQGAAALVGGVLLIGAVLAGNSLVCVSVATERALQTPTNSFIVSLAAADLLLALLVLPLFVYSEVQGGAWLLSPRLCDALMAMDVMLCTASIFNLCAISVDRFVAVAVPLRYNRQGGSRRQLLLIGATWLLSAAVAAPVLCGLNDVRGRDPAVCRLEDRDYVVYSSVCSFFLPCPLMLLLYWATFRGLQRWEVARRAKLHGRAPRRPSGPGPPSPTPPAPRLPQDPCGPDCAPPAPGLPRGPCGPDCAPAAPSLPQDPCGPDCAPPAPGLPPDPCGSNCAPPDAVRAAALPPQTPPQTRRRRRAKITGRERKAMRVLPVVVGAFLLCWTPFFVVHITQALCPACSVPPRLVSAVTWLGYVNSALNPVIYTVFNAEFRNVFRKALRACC

SMILES	Activity
Clc1cccc(C2CCN(CCCCOc3ccc4scnc4c3)CC2)c1Cl	Active

target: T1, D(2) dopamine receptor; experiment: Partial agonist activity at D2L receptor in human HTLA cells assessed as beta arrestin recruitment at 6 uM after 18 hrs by luminescence assay; assay type: functional, cell-based; conditions: not given

SMILES	EC50 [nM]
O=C1CCc2ccc(Oc3ccc(CN4CCN(c5cccc(Cl)c5Cl)CC4)cc3)cc2N1	501
O=C1CCc2ccc(OC[C@H]3CC[C@H](CN4CCN(c5cccc(Cl)c5Cl)CC4)CC3)cc2N1	1580
Clc1cccc(N2CCN(CCCCOc3ccc4cn[nH]c4c3)CC2)c1Cl	100
Clc1cccc(N2CCN(CCCCOc3ccc4scnc4c3)CC2)c1Cl	63
O=C1CCc2ccc(Oc3cccc(CN4CCN(c5cccc(Cl)c5Cl)CC4)c3)cc2N1	316
O=C1NCCc2ccc(OCCCCN3CCN(c4cccc(Cl)c4Cl)CC3)cc21	4

target: T1, D(2) dopamine receptor; experiment: Agonist activity at human D2L receptor expressed in HEK293T cells coexpressing Gi subunit assessed as inhibition of isoproterenol-stimulated cAMP production by luminescence assay; assay type: functional, cell-based, HEK-293T; conditions: hek-293t

SMILES	EC50
O=C1CCc2ccc(Oc3ccc(CN4CCN(c5cccc(Cl)c5Cl)CC4)cc3)cc2N1	Not Active
O=C1CCc2ccc(OC[C@H]3CC[C@H](CN4CCN(c5cccc(Cl)c5Cl)CC4)CC3)cc2N1	Not Active
Clc1cccc(N2CCN(CCCOc3ccc4scnc4c3)CC2)c1Cl	Not Active
Clc1cccc(N2CCN(CCCCOc3ccc4cn[nH]c4c3)CC2)c1Cl	Not Active
Clc1cccc(N2CCCN(CCCCOc3ccc4scnc4c3)CC2)c1Cl	Not Active
Clc1cccc(C2CCN(CCCCOc3ccc4scnc4c3)CC2)c1Cl	Not Active
O=C1NCCc2ccc(OCCCN3CCCN(c4cccc(Cl)c4Cl)CC3)cc21	Not Active
O=C1CCc2ccc(OCCCCN3CCN(c4cccc(Cl)c4Cl)CC3)nc2N1	Not Active
O=c1[nH]c2ccc(OCCCCN3CCC(c4cccc(Cl)c4Cl)CC3)cc2[nH]1	Not Active
Clc1cccc(N2CCN(CCCCOc3ccc4scnc4c3)CC2)c1Cl	Not Active
O=C1NCCc2ccc(OCCCN3CCN(c4cccc(Cl)c4Cl)CC3)cc21	Not Active
Clc1cccc(C2CCN(CCCOc3ccc4scnc4c3)CC2)c1Cl	Not Active
O=C1CCc2ccc(OCCCCN3CCCN(c4cccc(Cl)c4Cl)CC3)nc2N1	Not Active
O=C1CCc2ccc(Oc3cccc(CN4CCN(c5cccc(Cl)c5Cl)CC4)c3)cc2N1	Not Active
O=c1[nH]c2ccc(OCCCCN3CCN(c4cccc(Cl)c4Cl)CC3)cc2[nH]1	Not Active
Clc1cccc(N2CCN(CCCOc3ccc4cn[nH]c4c3)CC2)c1Cl	Not Active
O=C1NCCc2ccc(OCCCCN3CCN(c4cccc(Cl)c4Cl)CC3)cc21	Not Active

same assay, conditions: read-out: EC50

SMILES	EC50 [nM]
CC(C)Oc1ccccc1N1CCN(CCCCOc2ccc3c(c2)NC(=O)CC3)CC1	25
CCOc1cccc(N2CCN(CCCCOc3ccc4c(c3)NC(=O)CC4)CC2)c1	158
CCOc1ccc(N2CCN(CCCCOc3ccc4c(c3)NC(=O)CC4)CC2)cc1	251

target: D(1B) dopamine receptor (Homo sapiens) (UniProt P21918); experiment: Binding affinity to D5 receptor; conditions: not given
Sequence (P21918 whole entry): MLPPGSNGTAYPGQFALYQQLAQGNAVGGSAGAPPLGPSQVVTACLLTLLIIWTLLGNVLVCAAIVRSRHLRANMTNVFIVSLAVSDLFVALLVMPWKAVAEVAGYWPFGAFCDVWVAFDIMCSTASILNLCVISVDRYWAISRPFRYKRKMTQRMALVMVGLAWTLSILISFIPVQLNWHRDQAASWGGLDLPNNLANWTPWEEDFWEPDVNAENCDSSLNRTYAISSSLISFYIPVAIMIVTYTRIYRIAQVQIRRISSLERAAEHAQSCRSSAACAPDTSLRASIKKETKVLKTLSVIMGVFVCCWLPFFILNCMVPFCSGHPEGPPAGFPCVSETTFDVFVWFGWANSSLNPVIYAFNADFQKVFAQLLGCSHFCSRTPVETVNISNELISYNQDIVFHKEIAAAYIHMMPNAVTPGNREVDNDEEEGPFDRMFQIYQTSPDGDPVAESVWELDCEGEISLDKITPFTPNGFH

SMILES	Activity
Clc1cccc(C2CCN(CCCCOc3ccc4scnc4c3)CC2)c1Cl	inactive
O=C1CCc2ccc(OCCCCN3CCCN(c4cccc(Cl)c4Cl)CC3)cc2N1	inactive

target: T1, D(2) dopamine receptor; conditions: HTLA, at 6 µM
Description: Agonist activity at D2L receptor in human HTLA cells assessed as beta arrestin recruitment at 6 uM after 18 hrs by luminescence assay relative to Quinpirole

SMILES	Emax [%]
CC(C)Oc1ccccc1N1CCN(CCCCOc2ccc3c(c2)NC(=O)CC3)CC1	63
Clc1cccc(C2CCN(CCCCOc3ccc4scnc4c3)CC2)c1Cl	78
Clc1cccc(N2CCCN(CCCOc3ccc4scnc4c3)CC2)c1Cl	71
CCOc1cccc(N2CCN(CCCCOc3ccc4c(c3)NC(=O)CC4)CC2)c1	40
CCOc1ccc(N2CCN(CCCCOc3ccc4c(c3)NC(=O)CC4)CC2)cc1	82

tested on: Mus musculus; experiment: Antipsychotic-like activity in beta- arrestin-2 knockout mouse assessed as inhibition of PCP-induced hyperlocomotion at 2 mg/kg, ip administered 30 min prior to PCP challenge measured after 90 min; assay type: functional, organism-based; parameters: dose 2 mg/kg; conditions: not given

SMILES	inhibition
Clc1cccc(C2CCN(CCCCOc3ccc4scnc4c3)CC2)c1Cl	inactive
O=C1CCc2ccc(OCCCCN3CCCN(c4cccc(Cl)c4Cl)CC3)cc2N1	inactive
